# Key:
# LPCAT = LPCAT assay, coconut P2 preparation; format: biochemical, Cocos nucifera; conditions: substrates 12:0-CoA+12:0-LPC
# Text: Lysophosphatidylcholine (LPC) acyltransferase (LPCAT) is an enzyme analogous to LPAAT, involved in the biosynthesis of membrane lipids (phosphatidylcholine and derivatives thereof) instead of storage oil. The possibility that the activity measured in the LPAAT assay is not true LPAAT, but rather an inefficient action of LPCAT on the LPAAT substrates, can be tested by direct assay for LPCAT. For example, the LPAAT activity of the coconut P2 preparation with the substrate combination 12:0-CoA+12:0-LPA is readily measurable, whereas the LPCAT activity of the same preparation with the substrates 12:0-CoA+12:0-LPC is undetectable. […] The activities on long-chain substrates may represent either a single acyltransferase enzyme able to use LPA and LPC acceptor substrates, or discrete "long-chain" LPAAT and LPCAT enzymes which are present together.
# coconut LPAAT [1] = assay: LPAAT activity assay, coconut P2 membrane preparation; format: biochemical, Cocos nucifera; conditions: coconut P2 preparation, same assay
# Procedure: To assay for LPAAT activity, the sample is incubated with lysophosphatidic acid (LPA) and acyl-coenzyme A (acyl-CoA) substrates in buffered solution. The acyl substituents of the two substrates are chosen to correspond with the specificity of the enzyme being measured. […] LPAAT activity is measured as the amount of radioactive product formed in a given assay time. The PA product is radioactive as a result of the transferred radiolabeled acyl group at the central carbon atom of the molecule, and the quantity of PA formed may be determined by measuring radioactivity of the PA fraction. […]
# To stop the assay, 0.25 ml of 1M KCl in 0.2M H3 PO4 is added to the vial. […] The total radioactivity extracted into the organic phase is determined by liquid scintillation counting; a 100 μl sample of the organic phase is transferred to a 20 ml scintillation vial and allowed to dry, and scintillation fluid (3-5 ml) is added to the vial. The radioactivity of the sample, after subtraction of the "minus-enzyme" or "minus-LPA" radioactivities, is taken as an approximate indication of the amount of PA formed in the LPAAT-catalyzed reaction and therefore of LPAAT activity. […]
# coconut LPAAT [2] = biological target: T1, coconut LPAAT (Cocos nucifera, UniProt Q42670); assay: as above; format: biochemical; parameters: white endosperm tissue lining the inside of the endocarp can be dissected and collected; from tissue; host or cells: immature coconut endosperm, P2 membrane fraction
# T1 sequence (Q42670 1-308): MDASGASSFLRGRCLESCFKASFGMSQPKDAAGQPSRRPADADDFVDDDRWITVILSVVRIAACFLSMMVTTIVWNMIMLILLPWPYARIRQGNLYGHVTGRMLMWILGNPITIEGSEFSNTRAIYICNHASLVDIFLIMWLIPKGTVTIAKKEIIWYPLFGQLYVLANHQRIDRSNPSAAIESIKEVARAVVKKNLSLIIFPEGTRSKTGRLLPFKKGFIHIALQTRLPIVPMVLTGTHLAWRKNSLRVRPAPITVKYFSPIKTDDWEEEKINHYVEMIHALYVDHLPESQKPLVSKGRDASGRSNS
# Procedure: (§1) To assay for LPAAT activity, the sample is incubated with lysophosphatidic acid (LPA) and acyl-coenzyme A (acyl-CoA) substrates in buffered solution. The acyl substituents of the two substrates are chosen to correspond with the specificity of the enzyme being measured. For example, to measure activity of an LPAAT having preference for medium-chain substrates, lauroyl-LPA (lauroyl-lysophosphatidic acid) and lauroyl-CoA may be used, to measure activity of an LPAAT preferring longer-chain acyl groups, oleoyl-LPA and oleoyl-CoA may be used, to measure activity of an LPAAT preferring very-long chain substrate, erucyl-LPA and erucyl-CoA may be used, and so on, depending upon the type of LPAAT to be tested. The acyl group of one substrate is radioactively labeled in order to detect the product formed. In the examples which follow the acyl substituent of the acyl-CoA substrate is radiolabeled with ^14 C in the carboxyl group. LPAAT activity results in transfer of this acyl group from the acyl-CoA "donor" substrate to the LPA "acceptor" substrate, converting the latter into the product, phosphatidic acid (PA). LPAAT activity is measured as the amount of radioactive product formed in a given assay time. The PA product is radioactive as a result of the transferred radiolabeled acyl group at the central carbon atom of the molecule, and the quantity of PA formed may be determined by measuring radioactivity of the PA fraction. For this measurement, the PA is first separated from the acyl-CoA substrate by solvent partitioning, or by thin-layer chromatography (TLC).
# (§2) 20 μl of the sample to be assayed for LPAAT activity is mixed with 217.5 μl of an assay ingredient mixture in a 4-ml, screw-cap vial. […] The incubation takes place in a water bath at 30° C., for 20-30 minutes.
# (§3) To stop the assay, 0.25 ml of 1M KCl in 0.2M H3 PO4 is added to the vial. At this point, 40 μl BSA (bovine serum albumin, fraction V) at 1 mg/ml are added, followed by 0.75 ml of a solution of 67 μg/ml unlabeled PA (acting as a "carrier" to facilitate partitioning) in chloroform/methanol (2:1, v/v). The chain lengths of the PA acyl groups are chosen to correspond to those used in the assay substrates. Upon thorough mixing of these components the radiolabeled PA product of the LPAAT reaction partitions into the organic phase and away from the unreacted acyl-CoA and LPA. The vial is centrifuged briefly at low speed to facilitate the separation of organic (lower) and aqueous (upper) phases. The aqueous phase is then removed and discarded. The total radioactivity extracted into the organic phase is determined by liquid scintillation counting; a 100 μl sample of the organic phase is transferred to a 20 ml scintillation vial and allowed to dry, and scintillation fluid (3-5 ml) is added to the vial. The radioactivity of the sample, after subtraction of the "minus-enzyme" or "minus-LPA" radioactivities, is taken as an approximate indication of the amount of PA formed in the LPAAT-catalyzed reaction and therefore of LPAAT activity.
# A more accurate estimation of the LPAAT activity may be obtained by separating the PA product from these contaminants by TLC. The remaining organic phase is applied to a silica TLC plate. Ascending chromatography is carried out for 50 minutes, using the solvent mixture chloroform/pyridine/88% formic acid (50:30:7, v/v). After the plate has dried, the distribution of radioactivity is visualized and quantitated using an AMBIS radioanalytic imaging system (AMBIS Systems Inc., San Diego, Calif.). From prior application of standard lipid components the Rf of the PA is known. The radioactivity associated with the PA spot is expressed as a percentage of the total radioactivity of the assay sample loaded on the plate. This ratio provides an indication of the proportion of the scintillation counts which represent the PA product, and may be used to correct the counts to obtain the total PA radioactivity formed in the assay. […]
# control rapeseed LPAAT = assay: LPAAT acyl-CoA specificity, control P2 preparation; format: biochemical; conditions: acyl-CoA donor varied at 5 μM, acceptor 12:0-LPA; 30 minute reaction
# Procedure: (§4) Detailed acyl-CoA chain-length specificity analysis of control P2 preparations and LPAAT-transformed line 5511-5 were determined as described above, using the original 30 minute reaction time. The acyl-CoA substrates for this analysis are present in methanol, and thus the assay also had the following modifications. The first solution placed in the assay vial was the volume of each radiolabeled acyl-CoA required for 5 μM final assay concentration. […] After mixing to redissolve the acyl-CoA off the vial wall, the reaction is started by addition of 25 μl of a 5-fold diluted P2 preparation and continued as before. Acyl-CoA substrates used in this analysis were 8:0, 10:0, 12:0, 14:0, 16:0, 18:0, and 18:1. The acceptor substrate in these assays was 12:0-LPA.
# coconut LPAAT [3] = biological target: T1, coconut LPAAT; assay: Acyl-CoA specificity of coconut LPAAT expressed in E. coli (pCGN5505), membrane fractions; format: biochemical; parameters: the SalI/BamHI fragment of pCGN5504 containing the entire coconut LPAAT encoding region; made in house; host or cells: E. coli BL21(DE3), membrane fractions; conditions: acceptor 12:0-LPA
# Procedure: The samples are centrifuged at 12,000 g for 15 minutes. The resulting supernatant fractions are centrifuged for two hours at 134,000 g, and the pelleted membranes suspended in 50 mM HEPES, 200 mM NaCl, 20% (w/v) glycerol, 5 mM β-mercaptoethanol, pH 7.5. Membrane fractions are assayed for acyl-CoA substrate specificities with 12:0-LPA and various acyl-CoA species as described in Example 1. Membrane preparations from cultures of E. coli and from immature coconut endosperm are combined with soybean phospholipids and diluted in 1M NaCl in Buffer A to simulate the pre-assay conditions of the solubilized enzyme.
# bay LPAAT = assay: LPAAT activity assay, California bay P2 membrane preparation; format: biochemical, Umbellularia californica; conditions: P2 membrane preparation; acyl-CoA donor varied, acceptor 12:0-LPA
# Procedure: To assay for LPAAT activity, the sample is incubated with lysophosphatidic acid (LPA) and acyl-coenzyme A (acyl-CoA) substrates in buffered solution. The acyl substituents of the two substrates are chosen to correspond with the specificity of the enzyme being measured. […] The acyl group of one substrate is radioactively labeled in order to detect the product formed. In the examples which follow the acyl substituent of the acyl-CoA substrate is radiolabeled with ^14 C in the carboxyl group. LPAAT activity results in transfer of this acyl group from the acyl-CoA "donor" substrate to the LPA "acceptor" substrate, converting the latter into the product, phosphatidic acid (PA). LPAAT activity is measured as the amount of radioactive product formed in a given assay time. The PA product is radioactive as a result of the transferred radiolabeled acyl group at the central carbon atom of the molecule, and the quantity of PA formed may be determined by measuring radioactivity of the PA fraction. For this measurement, the PA is first separated from the acyl-CoA substrate by solvent partitioning, or by thin-layer chromatography (TLC).
# [4] = biological target: T2, LPAAT of transformant 5511-5 (Cocos nucifera, UniProt Q42670); assay: LPAAT acyl-CoA specificity, P2 preparation of LPAAT-transformed line 5511-5; format: biochemical, Rapeseed; conditions: acyl-CoA donor varied at 5 μM, acceptor 12:0-LPA; 30 minute reaction
# T2 construct: crude P2 membranes, host LPAAT also present
# T2 sequence (Q42670 1-308): T1 sequence (Q42670 1-308)
# Procedure: as §4
# Rapeseed LPAAT = assay: LPAAT activity assay, rapeseed P2 membrane preparation; format: biochemical, Brassica napus; conditions: acyl-CoA donor varied, acceptor 12:0-LPA
# Procedure: as §1, §2, §3
# A more accurate estimation of the LPAAT activity may be obtained by separating the PA product from these contaminants by TLC. The remaining organic phase is applied to a silica TLC plate. […] After the plate has dried, the distribution of radioactivity is visualized and quantitated using an AMBIS radioanalytic imaging system (AMBIS Systems Inc., San Diego, Calif.). From prior application of standard lipid components the Rf of the PA is known. The radioactivity associated with the PA spot is expressed as a percentage of the total radioactivity of the assay sample loaded on the plate. This ratio provides an indication of the proportion of the scintillation counts which represent the PA product, and may be used to correct the counts to obtain the total PA radioactivity formed in the assay.
# A P2 membrane homogenate from immature embryos of developing rapeseed (Brassica napus) seeds is prepared essentially as described above, except as noted below.
compound,measurement,setting,value
"CCCCCCCCCCCC(=O)OCC(O)COP(=O)([O-])OCC[N+](C)(C)C (stereo not drawn) [12:0-LPC, lauroyl-lysophosphatidylcholine]",LPCAT activity,LPCAT,undetectable
12:0-ACP: 12:0 acyl-ACP tested as LPAAT donor substrate,hydrolysis by the P2 preparation,coconut LPAAT [1],not hydrolyzed
same,utilization as LPAAT donor substrate instead of 12:0-CoA,coconut LPAAT [2]; coconut P2 preparation,will not utilize
CCCCCCCCCCCCCCCCCC(=O)SCCNC(=O)CCNC(=O)[C@H](O)C(C)(C)COP(=O)(O)OP(=O)(O)OC[C@H]1O[C@@H](n2cnc3c(N)ncnc32)[C@H](O)[C@@H]1OP(=O)(O)O [18:0],LPAAT Activity from Coconut,"coconut LPAAT [2]; P2 membrane preparation, acyl-CoA donor varied, acceptor 12:0-LPA",13 pmol PA formed/30 min assay
same,"Cpm PA Product, Control",control rapeseed LPAAT,1514 Cpm
same,utilization by E. coli expressed coconut LPAAT,coconut LPAAT [3],less well utilized
same,LPAAT Activity from Bay,bay LPAAT,6 pmol PA formed/30 min assay
same,"Cpm PA Product, 5511-5",[4],2038 Cpm
same,LPAAT Activity from Rapeseed,Rapeseed LPAAT,21 pmol PA formed/30 min assay

# Source: US5968791A, “Plant lysophosphatidic acid acyltransferases” (Calgene, Inc., priority 1995, dated 1999)
